Measured values from patent US20260053834A1, “COVALENT MODIFIERS OF AKT1 AND USES THEREOF” (Terremoto Biosciences, Inc., priority 2023, published 2026).

How the values were obtained:
AKT2 = molecular target: T1, AKT2 (Homo sapiens, UniProt P31751); assay: Live cell target engagement by NanoBRET competitive probe displacement, AKT2; format: binding; conditions: transfected HEK293 cells, 2 h at 37° C., read-out: AKT2 IC50: GeoMean IC50
T1 construct: expressed in transfected cells; host or cells: HEK293
T1 sequence (P31751 whole entry): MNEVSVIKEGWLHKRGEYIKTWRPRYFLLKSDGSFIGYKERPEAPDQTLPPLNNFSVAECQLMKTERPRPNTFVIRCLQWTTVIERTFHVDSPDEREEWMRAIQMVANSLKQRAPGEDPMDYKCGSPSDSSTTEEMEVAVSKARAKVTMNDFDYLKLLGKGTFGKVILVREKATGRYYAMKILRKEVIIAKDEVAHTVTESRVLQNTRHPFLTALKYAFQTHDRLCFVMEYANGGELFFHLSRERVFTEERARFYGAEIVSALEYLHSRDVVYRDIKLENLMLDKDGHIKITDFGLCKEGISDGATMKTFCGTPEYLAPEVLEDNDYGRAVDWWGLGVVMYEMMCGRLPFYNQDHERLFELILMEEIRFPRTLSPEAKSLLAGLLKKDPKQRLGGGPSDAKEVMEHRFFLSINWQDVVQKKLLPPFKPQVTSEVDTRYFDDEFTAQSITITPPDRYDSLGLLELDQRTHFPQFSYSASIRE

AKT1 WT = molecular target: T2, AKT1 WT (Homo sapiens, UniProt P31749); assay: Live cell target engagement by NanoBRET competitive probe displacement, AKT1 WT; format: binding; conditions: transfected HEK293 cells, 2 h at 37° C., read-out: AKT1 WT IC50: GeoMean IC50
T2 construct: expressed in transfected cells; host or cells: HEK293
T2 sequence (P31749 whole entry): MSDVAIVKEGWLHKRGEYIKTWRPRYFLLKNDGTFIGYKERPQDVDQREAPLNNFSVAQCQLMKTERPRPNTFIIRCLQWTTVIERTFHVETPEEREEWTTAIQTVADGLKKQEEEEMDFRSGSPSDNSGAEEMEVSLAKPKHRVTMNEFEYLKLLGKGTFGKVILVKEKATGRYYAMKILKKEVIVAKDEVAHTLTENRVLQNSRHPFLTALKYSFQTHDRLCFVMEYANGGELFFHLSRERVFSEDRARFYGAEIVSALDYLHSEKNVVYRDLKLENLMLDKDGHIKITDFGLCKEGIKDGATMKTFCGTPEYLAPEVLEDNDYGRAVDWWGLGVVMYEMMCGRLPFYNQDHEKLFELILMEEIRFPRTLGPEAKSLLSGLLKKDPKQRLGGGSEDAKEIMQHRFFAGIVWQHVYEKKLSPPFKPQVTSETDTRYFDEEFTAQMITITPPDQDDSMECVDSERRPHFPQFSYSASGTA

AKT1 E17K = molecular target: T3, AKT1 E17K (Homo sapiens, UniProt P31749, E17K); assay: Live cell target engagement by NanoBRET competitive probe displacement, AKT1 E17K; format: binding; conditions: transfected HEK293 cells, 2 h at 37° C., read-out: AKT1 E17K IC50: GeoMean IC50
T3 construct: expressed in transfected cells; host or cells: HEK293
T3 sequence (P31749 whole entry E17K): as the sequence (P31749 whole entry) above, with E17K counted along it

[1] = system: LAPC4 prostate cancer cells, which express the AKT1 E17K allele; assay: Antiproliferative effects in LAPC4 cells (CellTiter Glo, 72 h); format: cell-based; conditions: Homo sapiens, LAPC4, 72 h, read-out: LAPC4 proliferation IC50: GeoMean IC50
Outline: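 IC50 values come from Hill-equation fitting of luminescence (cellular ATP) after 72 h compound exposure. Treated wells held 1,000 cells each, with compound delivered as DMSO dilutions. Culture medium was IMDM plus 12% FBS.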

Compound	IC50 (AKT2) [nM]	IC50 (AKT1 WT) [nM]	IC50 (AKT1 E17K) [nM]	IC50 [1] [nM]
COCc1ccn(-c2ccc3nc(-c4cccnc4N)n(-c4ccc5c(c4)CC[C@@H]5NC(=O)c4ccc(O)c(C=O)c4)c3n2)n1 [Example 126, N-[(1S)-5-[2-(2-aminopyridin-3-yl)-5-[3-(methoxymethyl)pyrazol-1-yl]imidazo[4,5-b]pyridin-3-yl]-2,3-dihydro-1H-inden-1-yl]-3-formyl-4-hydroxybenzamide]	100 to 2000	10 to 100	< 10	10 to 100
Nc1ncccc1-c1nc2ccc(-n3ccc(CO)n3)nc2n1-c1ccc2c(c1)CC[C@@H]2NC(=O)c1ccc(O)c(C=O)c1 [Example 127, (S)—N-(5-(2-(2-aminopyridin-3-yl)-5-(3-(hydroxymethyl)-1H-pyrazol-1-yl)-3H-imidazo[4,5-b]pyridin-3-yl)-2,3-dihydro-1H-inden-1-yl)-3-formyl-4-hydroxybenzamide]	100 to 2000	10 to 100	10 to 100	10 to 100
Cc1cc(C)n(-c2ccc3nc(-c4cccnc4N)n(-c4ccc5c(c4)CC[C@@H]5NC(=O)c4ccc(O)c(C=O)c4)c3n2)n1 [Example 129, N-[(1S)-5-[2-(2-aminopyridin-3-yl)-5-(3,5-dimethylpyrazol-1-yl)imidazo[4,5-b]pyridin-3-yl]-2,3-dihydro-1H-inden-1-yl]-3-formyl-4-hydroxybenzamide]	100 to 2000	10 to 100	10 to 100	100 to 2000
Nc1ncccc1-c1nc2ccc(-c3nccs3)nc2n1-c1ccc2c(c1)CC[C@@H]2NC(=O)c1cc(F)c(O)c(C=O)c1 [Example 130, N-[(1S)-5-[2-(2-aminopyridin-3-yl)-5-(1,3-thiazol-2-yl)imidazo[4,5-b]pyridin-3-yl]-2,3-dihydro-1H-inden-1-yl]-3-fluoro-5-formyl-4-hydroxybenzamide]	100 to 2000	10 to 100	10 to 100	10 to 100
Cc1cc(-n2cccn2)nc2c1nc(-c1cccnc1N)n2-c1ccc2c(c1)CC[C@@H]2NC(=O)c1ccc(O)c(C=O)c1 [Example 131, (S)—N-(5-(2-(2-aminopyridin-3-yl)-7-methyl-5-(1H-pyrazol-1-yl)-3H-imidazo[4,5-b]pyridin-3-yl)-2,3-dihydro-1H-inden-1-yl)-3-formyl-4-hydroxybenzamide]	10 to 100	10 to 100	10 to 100	10 to 100
Cc1cnc(-c2ccc3nc(-c4cccnc4N)n(-c4ccc5c(c4)CC[C@@H]5NC(=O)c4ccc(O)c(C=O)c4)c3n2)s1 [Example 132, (S)—N-(5-(2-(2-aminopyridin-3-yl)-5-(5-methylthiazol-2-yl)-3H-imidazo[4,5-b]pyridin-3-yl)-2,3-dihydro-1H-inden-1-yl)-3-formyl-4-hydroxybenzamide]	100 to 2000	10 to 100	< 10	10 to 100
Cc1csc(-c2ccc3nc(-c4cccnc4N)n(-c4ccc5c(c4)CC[C@@H]5NC(=O)c4ccc(O)c(C=O)c4)c3n2)n1 [Example 133, (S)—N-(5-(2-(2-aminopyridin-3-yl)-5-(4-methylthiazol-2-yl)-3H-imidazo[4,5-b]pyridin-3-yl)-2,3-dihydro-1H-inden-1-yl)-3-formyl-4-hydroxybenzamide]	10 to 100	< 10	< 10	10 to 100
Nc1ccn(-c2ccc3nc(-c4cccnc4N)n(-c4ccc5c(c4)CC[C@@H]5NC(=O)c4ccc(O)c(C=O)c4)c3n2)n1 [Example 134, N-[(1S)-5-[5-(3-aminopyrazol-1-yl)-2-(2-aminopyridin-3-yl)imidazo[4,5-b]pyridin-3-yl]-2,3-dihydro-1H-inden-1-yl]-3-formyl-4-hydroxybenzamide]	100 to 2000	100 to 2000	10 to 100	100 to 2000
Nc1ncccc1-c1nc2ccc(-n3ccc(F)n3)nc2n1-c1ccc2c(c1)CC[C@@H]2NC(=O)c1cc(C=O)c(O)cc1F [Example 135, N-[(1S)-5-[2-(2-aminopyridin-3-yl)-5-(3-fluoropyrazol-1-yl)imidazo[4,5-b]pyridin-3-yl]-2,3-dihydro-1H-inden-1-yl]-2-fluoro-5-formyl-4-hydroxybenzamide]	100 to 2000	10 to 100	10 to 100	10 to 100
Nc1ncccc1-c1nc2ccc(Cl)nc2n1-c1ccc2c(c1)CC[C@@H]2NC(=O)c1ccc(O)c(C=O)c1 [Example 136, N-[(1S)-5-[2-(2-aminopyridin-3-yl)-5-chloroimidazo[4,5-b]pyridin-3-yl]-2,3-dihydro-1H-inden-1-yl]-3-formyl-4-hydroxybenzamide]	≥ 2000	100 to 2000	10 to 100	100 to 2000
Nc1ncccc1-c1nc2ccc(-c3ccccc3)nc2n1-c1ccc2c(c1)CC[C@@H]2NC(=O)c1cc(C=O)c2[nH]nnc2c1 [Example 137, N-[(1S)-5-[2-(2-aminopyridin-3-yl)-5-phenylimidazo[4,5-b]pyridin-3-yl]-2,3-dihydro-1H-inden-1-yl]-7-formyl-1H-1,2,3-benzotriazole-5-carboxamide]	< 10	< 10	< 10	10 to 100
Nc1ncccc1-c1nc2ccc(-n3cc(CO)cn3)nc2n1-c1ccc2c(c1)CC[C@@H]2NC(=O)c1cc(C=O)c(O)cc1F [Example 138, (S)—N-(5-(2-(2-aminopyridin-3-yl)-5-(4-(hydroxymethyl)-1H-pyrazol-1-yl)-3H-imidazo[4,5-b]pyridin-3-yl)-2,3-dihydro-1H-inden-1-yl)-2-fluoro-5-formyl-4-hydroxybenzamide]	100 to 2000	100 to 2000	10 to 100	10 to 100
Nc1ncccc1-c1nc2ccc(-c3nccs3)nc2n1-c1ccc2c(c1)CC[C@@H]2NC(=O)c1cc(C=O)c(O)c(F)c1F [Example 140, (S)—N-(5-(2-(2-aminopyridin-3-yl)-5-(thiazol-2-yl)-3H-imidazo[4,5-b]pyridin-3-yl)-2,3-dihydro-1H-inden-1-yl)-2,3-difluoro-5-formyl-4-hydroxybenzamide]	10 to 100	< 10	< 10	< 10
Cn1ccnc1Nc1ccc(C(=O)N[C@H]2CCc3cc(-n4c(-c5cccnc5N)nc5ccc(-n6cccn6)nc54)ccc32)cc1C=O [Example 141, (S)—N-(5-(2-(2-aminopyridin-3-yl)-5-(1H-pyrazol-1-yl)-3H-imidazo[4,5-b]pyridin-3-yl)-2,3-dihydro-1H-inden-1-yl)-3-formyl-4-((1-methyl-1H-imidazol-2-yl)amino)benzamide]	100 to 2000	10 to 100	100 to 2000	100 to 2000
Nc1ncccc1-c1nc2ccc(-n3cccn3)nc2n1-c1ccc2c(c1)CC[C@@H]2NC(=O)c1cccc(C=O)c1 [Example 142, (S)—N-(5-(2-(2-aminopyridin-3-yl)-5-(1H-pyrazol-1-yl)-3H-imidazo[4,5-b]pyridin-3-yl)-2,3-dihydro-1H-inden-1-yl)-3-formylbenzamide]	10 to 100	< 10	10 to 100	100 to 2000
Nc1ncccc1-c1nc2ccc(-n3cccn3)nc2n1-c1ccc2c(c1)CC[C@@H]2NC(=O)c1csc(C=O)n1 [Example 143, (S)—N-(5-(2-(2-aminopyridin-3-yl)-5-(1H-pyrazol-1-yl)-3H-imidazo[4,5-b]pyridin-3-yl)-2,3-dihydro-1H-inden-1-yl)-2-formylthiazole-4-carboxamide]	100 to 2000	100 to 2000	100 to 2000	100 to 2000
Nc1ncccc1-c1nc2ccc(-c3nccs3)nc2n1-c1ccc2c(c1)CC[C@@H]2NC(=O)c1cc(C=O)c(O)cc1F [Example 144, N-[(1S)-5-[2-(2-aminopyridin-3-yl)-5-(1,3-thiazol-2-yl)imidazo[4,5-b]pyridin-3-yl]-2,3-dihydro-1H-inden-1-yl]-2-fluoro-5-formyl-4-hydroxybenzamide]	10 to 100	10 to 100	10 to 100	10 to 100
C#Cc1cc(O)c(C=O)cc1C(=O)N[C@H]1CCc2cc(-n3c(-c4cccnc4N)nc4ccc(-n5cccn5)nc43)ccc21 [Example 145, N-[(1S)-5-[2-(2-aminopyridin-3-yl)-5-(pyrazol-1-yl)imidazo[4,5-b]pyridin-3-yl]-2,3-dihydro-1H-inden-1-yl]-2-ethynyl-5-formyl-4-hydroxybenzamide]	100 to 2000	10 to 100	10 to 100	100 to 2000
Nc1ncccc1-c1nc2ccc(-c3ncc(C(F)F)s3)nc2n1-c1ccc2c(c1)CC[C@@H]2NC(=O)c1ccc(O)c(C=O)c1 [Example 146, (S)—N-(5-(2-(2-aminopyridin-3-yl)-5-(5-(difluoromethyl)thiazol-2-yl)-3H-imidazo[4,5-b]pyridin-3-yl)-2,3-dihydro-1H-inden-1-yl)-3-formyl-4-hydroxybenzamide]	100 to 2000	100 to 2000	10 to 100	100 to 2000
Nc1ncccc1-c1nc2ccc(-c3nc(C(F)F)cs3)nc2n1-c1ccc2c(c1)CC[C@@H]2NC(=O)c1ccc(O)c(C=O)c1 [Example 147, N-[(1S)-5-[2-(2-aminopyridin-3-yl)-5-[4-(difluoromethyl)-1,3-thiazol-2-yl]imidazo[4,5-b]pyridin-3-yl]-2,3-dihydro-1H-inden-1-yl]-3-formyl-4-hydroxybenzamide]	100 to 2000	10 to 100	10 to 100	10 to 100
